The values that follow come from US20200368336A1, “METHOD FOR PREPARING PERSONALIZED CANCER VACCINE” (SHANGHAI JENOMED BIOTECH CO., LTD., priority 2017, published 2020).

The test system of the test is mouse MHC molecule (MHC class I molecules). As to the kind of experiment: predicted affinity of short peptide chain to mouse MHC molecule (correlation analysis software). To be noted: mutant vs wild-type. The protocol:
The tumor neoantigen of mice were analyzed by the following methods: mouse H-2 typing software was used to classify mouse H-2 molecules, and using software such as Sentieon TNscope, the DNA exome sequencing sequence of the peripheral blood mononuclear cells of cancer-bearing mice was used as a control to isolate tumor neoantigen from the sequencing sequence of CTC DNA exome of cancer-bearing mice, and the correlation analysis software was used to predict the affinity of the short peptide chain tumor neoantigen and its corresponding wild-type short peptide chain to the mouse MHC molecule.

For “KAIRNVLII [preferred tumor neoantigen peptide screened from CTC of cancer-bearing mice]”, the “affinity of neoantigen higher than that of corresponding wild-type short peptide chain” value is “about 556 times”.
